Patent US11634466B2, “Musclin peptides and methods of use thereof” (UNIVERSITY OF IOWA RESEARCH FOUNDATION, priority 2016, dated 2023)

Experiments:
[1] = Plasma musclin level by custom ELISA after osmotic pump infusion of musclin; assay type: in vivo; details: WT mice, musclin 1 ng/g/h i.p. by osmotic pump for 7 d
Method: Whole body composition was obtained by time-domain nuclear magnetic resonance under isoflurane anesthesia (Bruker Minispec; Billerica, Mass.). Osmotic pumps: Osmotic pumps (model 1004, 100 μl volume, 0.11 μl/hr release rate, 28 days duration, Alzet Durect, Cupertino, Calif.), loaded with saline vs. 50 μg of mouse musclin peptide (SFSGFGSPLDRLSAG SVEHRGKQRKAVDHSKKR (SEQ ID NO: 4), corresponding to amino acids 80-112, Gen Bank ID: AAS87598.1, synthesized by Biosynthesis, Lewisville, Tex.) were surgically implanted within the peritoneal cavity of mice under sterile conditions and general anesthesia. Mice recovered for 7 days before exercise testing was performed.
Terminal blood collection was performed by direct cardiac puncture.
96-well ELISA Maxisorp plates (Nunc) were coated with custom rabbit anti-musclin IgG (Anaspec) at 1 μg/well in BupH carbonate-bicarbonate buffer, pH 9.4 (Thermo Scientific) at 4° C. overnight. On the next day plates were washed with TBS/0.05% Tween 20 and blocked with 5% BSA/TBS for 1 hr at room temperature. Synthetic musclin peptide was used as a standard (NH2-sfsgfgspldrlsagsvehrgkqrkavdhskkr-COOH (SEQ ID NO: 28), corresponding to amino acids 80-112, Gen Bank ID: AAS87598.1, synthesized by Biosynthesis, Lewisville, Tex.). […] Fluorescence was detected at 325/420 nm.

[2] = test system: cGMP production in murine primary myoblasts; assay: cGMP production in skeletal myoblast culture exposed to ANP and musclin; assay type: cell-based; details: n=3
Method: Cyclic GMP levels were measured using cyclicGMP EIA kit (Cayman Chemical Company, Ann Arbor, Mich.). Mice were exercised for 5 days, 12 m/min, 45 min before tissue collection. At the day of the experiment mice were exercised 12 m/min, 20 min, sedated with isoflurane and gastrocnemius muscle tissue was collected. Cyclic nucleotides were extracted using 5% trichloracetic acid. Samples were acetylated and used for cGMP level measurements according to the manufacturer's protocol.
Mouse primary myoblasts were isolated from gastrocnemius muscle of 4-6 weeks old mice. Fresh muscle tissue was digested with 2 mg/ml collagenase II in DMEM-F12 for 1.5 h at 37° C.; then 30 min at 37° C. with 1 mg/ml collagenase II and 0.5 mg/ml dispase in DMEM-F12. Tissue was ground and passed through a 100 μm then 70 μm cell strainer and spun at 1000 rpm for 10 min. Myoblasts were resuspended in DMEM-F12 supplemented with 20% FBS, 40 ng/ml bFGF, non-essential amino acids, 1 mM β-mercaptoethanol. Cells were plated on matrigel coated dishes. Cells were maintained in DMEM-F12 supplemented with 20% FBS, 10 ng/ml bFGF, non-essential amino acids, 1 mM β-mercaptoethanol until 80% confluent. Then they were differentiated in DMEM-F12 supplemented with 2% FBS and insulin-transferrin-selenium for 10 days. Human skeletal myoblast primary culture (lot #SLSK002, Zenbio, Research Triangle Park, NC) was maintained according to the supplier's manual.

[3] = biological target: T1, NP clearance receptor, NPRC (Homo sapiens, UniProt P17342); details: background statement; cited from earlier work
T1 sequence (P17342 27-541): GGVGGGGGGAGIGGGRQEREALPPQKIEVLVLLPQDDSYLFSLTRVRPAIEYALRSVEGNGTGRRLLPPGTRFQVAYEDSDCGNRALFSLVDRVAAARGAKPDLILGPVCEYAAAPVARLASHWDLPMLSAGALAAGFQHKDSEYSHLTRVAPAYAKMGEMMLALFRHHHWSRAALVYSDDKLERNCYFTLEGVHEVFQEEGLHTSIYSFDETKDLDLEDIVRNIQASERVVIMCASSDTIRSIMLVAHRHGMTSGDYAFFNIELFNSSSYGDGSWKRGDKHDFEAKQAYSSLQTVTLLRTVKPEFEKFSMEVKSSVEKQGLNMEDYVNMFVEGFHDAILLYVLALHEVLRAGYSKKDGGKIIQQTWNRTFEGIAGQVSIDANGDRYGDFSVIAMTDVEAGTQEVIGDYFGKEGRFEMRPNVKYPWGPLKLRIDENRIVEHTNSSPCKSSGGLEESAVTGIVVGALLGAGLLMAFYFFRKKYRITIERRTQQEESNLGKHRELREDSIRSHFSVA

NPRB = biological target: T2, NPRB (Homo sapiens, UniProt P20594); details: background statement; without activating the linked guanylyl cyclase; cited from earlier work
T2 sequence (P20594 23-1047): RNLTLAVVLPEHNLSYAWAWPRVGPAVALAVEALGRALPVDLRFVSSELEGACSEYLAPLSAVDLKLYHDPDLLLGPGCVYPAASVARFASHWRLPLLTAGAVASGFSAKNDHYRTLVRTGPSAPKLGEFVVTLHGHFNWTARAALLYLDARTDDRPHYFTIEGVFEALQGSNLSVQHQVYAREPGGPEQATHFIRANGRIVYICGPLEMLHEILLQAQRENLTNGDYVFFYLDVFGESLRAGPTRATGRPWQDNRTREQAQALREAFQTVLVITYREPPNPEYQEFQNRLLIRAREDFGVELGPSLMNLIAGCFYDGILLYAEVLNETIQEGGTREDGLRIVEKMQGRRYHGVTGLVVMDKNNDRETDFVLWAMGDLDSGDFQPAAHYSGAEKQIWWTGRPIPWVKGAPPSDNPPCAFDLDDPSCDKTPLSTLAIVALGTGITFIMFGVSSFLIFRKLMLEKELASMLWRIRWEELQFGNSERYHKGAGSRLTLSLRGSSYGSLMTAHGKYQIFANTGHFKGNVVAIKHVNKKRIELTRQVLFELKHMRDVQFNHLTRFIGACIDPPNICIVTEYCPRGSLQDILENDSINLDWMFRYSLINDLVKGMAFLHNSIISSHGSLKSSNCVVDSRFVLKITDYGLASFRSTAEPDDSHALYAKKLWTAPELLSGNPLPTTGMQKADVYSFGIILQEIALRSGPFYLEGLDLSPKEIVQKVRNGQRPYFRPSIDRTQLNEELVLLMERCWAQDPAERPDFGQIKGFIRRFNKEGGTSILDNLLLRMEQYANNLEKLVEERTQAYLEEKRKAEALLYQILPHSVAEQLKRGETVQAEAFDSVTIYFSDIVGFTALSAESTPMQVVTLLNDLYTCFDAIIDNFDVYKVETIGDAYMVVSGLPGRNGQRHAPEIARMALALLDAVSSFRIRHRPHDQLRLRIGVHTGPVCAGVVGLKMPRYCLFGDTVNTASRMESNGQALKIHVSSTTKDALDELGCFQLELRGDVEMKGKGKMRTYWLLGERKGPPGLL

H-SFSGFGSPLDRLSAGSVEHRGKQRKAVDHSKKR-OH [musclin]
plasma level induced by musclin infusion [1]: comparable with that observed after exercise training | cGMP production ([2]; 1 μM musclin without ANP): 0.104±0.006 fmol/μg protein | cGMP production ([2]; 5 μM musclin without ANP): 0.117±0.003 fmol/μg protein | binding to NPRC [3]: affinity comparable to NPs | binding to NPRB (NPRB): weak binding
